According to patent US20220288057A1, “CONJOINT THERAPY FOR TREATING SEIZURE DISORDERS” (XENON PHARMACEUTICALS INC., priority 2021, published 2022):
Like-named read-outs stand apart in the source and are kept apart here.

Assays:
[1] = Clinical observations / behavioral signs in AC-MES studies; type: in vivo, mouse; settings: male, CF-1, mouse, in vivo, read-out: plasma concentration of individual mouse showing behavioral signs (tremors, decreased activity, splayed hindlimbs)
Protocol: Any qualitative changes from normal behavior were recorded.
Five oral (PO) doses of Compound A were each tested in the AC-MES model. Thirty minutes after administration of Compound A at 1 mg/kg (n=8), 3 mg/kg (n=8), 5 mg/kg (n=16), 7.5 mg/kg (n=7), and 10 mg/kg (n=17) via oral gavage to male CF-1 mice (body weights 28.2 to 43.8 g), the mice underwent a 60 Hz corneal electrical stimulus (0.2 seconds duration, 40 mA). This stimulus elicited a tonic hindlimb extension in all vehicle-dosed animals. […] An observational neurological assessment (qualitative test) was also conducted at the time of testing as a tolerability screen. Terminal plasma and brain samples were collected from all animals to obtain the levels of Compound A concentration, and to understand the relationship between efficacy and drug concentration.
The Blinding and Randomization, Clinical Observations, AC-MES Assay, Sample Collection and Preparation, Plasma and Brain Samples Analysis, and Bioanalysis Procedures in Example 4 were identical to those used in Example 2.

[2] = Plasma and brain concentrations in 6 Hz studies (LC-MS/MS); type: in vivo, mouse
Protocol: Sample Collection and Preparation: Mice were anesthetized by isoflurane inhalation (TECH-018) until they reached a surgical plane of anesthesia. Then a syringe (1 mL syringe with a 22 gauge needle) was inserted under the sternum into the heart (TECH-031). Approximately 0.5 mL of blood was collected, deposited into a K2EDTA tube, and stored on ice. Animals were then euthanized by cervical dislocation (TECH-018). Brains were removed, placed into a pre-weighed vial, and snap frozen on dry ice. At the end of the sample collection, blood was centrifuged at 4000 rpm for 10 minutes at 4° C., and the plasma pipetted into a labeled tube. All samples were stored in a −80° C. freezer until bioanalysis (8 days after sample collection for Studies 3A and 3B; 20 days after sample collection for Study 3C).
Plasma and Tissue Sample Analysis: Bead mill polypropylene tubes containing weighed brain tissues were thawed at room temperature and 3 mL of homogenization solvent (water:acetonitrile (1:1, v:v)) was added. The tubes were placed in the Bead Mill Homogenizer (Bead Ruptor Elite Model, Omni International) and shaken at a velocity of 3.70 m/s for a single cycle lasting 30 seconds. The homogenized tube was centrifuged at 4000 rpm for 20 minutes, the supernatant was transferred to a 1.5 mL Eppendorf tube, and stored frozen at −80° C. until analysis. All samples including plasma and brain homogenate extracts (including calibration and quality control (QC) samples prepared in K2EDTA rat plasma), were extracted by protein precipitation. […] The samples in the 1.5 mL tubes were vortex mixed and then centrifuged for 20 minutes at 13,000 rpm. Fifty microliters of the supernatant was mixed with 150 μL of water/acetonitrile (1:1) in a 96 well plate which was centrifuged post mixing for 20 minutes at 4000 rpm, and was then ready for analysis by liquid chromatography tandem mass spectrometry (LC-MS/MS).
Samples were analyzed by a research-grade LC-MS/MS method as follows: […]

Cc1cc(N2CCc3cc(F)ccc3C2)cc(C)c1NC(=O)CC(C)(C)C [Compound A, N-[4-(6-fluoro-3,4-dihydro-1H-isoquinolin-2-yl)-2,6-dimethylphenyl]-3,3-dimethylbutanamide]
concentration at 30 min ([1]; 7.5 mg/kg, Study 2B, Compound A 7.5 mg/kg group): 746 nM
concentration at 30 min ([1]; 7.5 mg/kg, Study 4B, Compound A 7.5 mg/kg group): 750 nM
concentration at 30 min ([1]; 10 mg/kg, Study 2A, Compound A 10 mg/kg group): 391 nM
concentration at 30 min ([1]; 10 mg/kg, Study 4A, Compound A 10 mg/kg group): 390 nM
concentration at 30 min ([1]; Study 2B, Compound A 10 mg/kg group, two mice): 608 nM
fold higher brain concentration of Compound A in Study 3C compared to Study 3B ([2]; 1 hour post dosing): 11 fold
fold higher plasma concentration of Compound A in Study 3C compared to Study 3B ([2]; 1 hour post dosing): 12 fold
concentration at 1 h ([2]; CF-1, mouse, brain, po, 1 mg/kg, Study 3A, Compound A 1 mg/kg PO, 1 h, read-out: Brain): 90 nM
concentration at 1 h ([2]; CF-1, mouse, brain, po, 3 mg/kg, Study 3A, Compound A 3 mg/kg PO, 1 h, read-out: Brain): 260 nM
concentration at 1 h ([2]; CF-1, mouse, brain, po, 4 mg/kg, Study 3B, Compound A 4 mg/kg PO 1 h alone, read-out: Brain): 30 ± 20 nM
concentration at 1 h ([2]; CF-1, mouse, brain, po, 4 mg/kg, Study 3C, Compound A 4 mg/kg PO 1 h alone, read-out: Brain): 410 ± 230 nM
concentration at 1 h ([2]; CF-1, mouse, brain, po, 5 mg/kg, Study 3A, Compound A 5 mg/kg PO, 1 h, read-out: Brain): 290 nM
concentration at 1 h ([2]; CF-1, mouse, brain, po, 8 mg/kg, Study 3A, Compound A 8 mg/kg PO, 1 h, read-out: Brain): 700 ± 410 nM
concentration at 1 h ([2]; CF-1, mouse, plasma, po, 1 mg/kg, Study 3A, Compound A 1 mg/kg PO, 1 h, read-out: Plasma): 40 nM
concentration at 1 h ([2]; CF-1, mouse, plasma, po, 3 mg/kg, Study 3A, Compound A 3 mg/kg PO, 1 h, read-out: Plasma): 150 nM
concentration at 1 h ([2]; CF-1, mouse, plasma, po, 4 mg/kg, Study 3B, Compound A 4 mg/kg PO 1 h alone, read-out: Plasma): 14 ± 9 nM
concentration at 1 h ([2]; CF-1, mouse, plasma, po, 4 mg/kg, Study 3C, Compound A 4 mg/kg PO 1 h alone, read-out: Plasma): 167 ± 89.7 nM
concentration at 1 h ([2]; CF-1, mouse, plasma, po, 5 mg/kg, Study 3A, Compound A 5 mg/kg PO, 1 h, read-out: Plasma): 180 nM
concentration at 1 h ([2]; CF-1, mouse, plasma, po, 8 mg/kg, Study 3A, Compound A 8 mg/kg PO, 1 h, read-out: Plasma): 470 ± 290 nM
fold higher concentrations of Compound A in plasma and brain in Study 3C than in Study 3B ([2]; Compound A 4 mg/kg PO, 1 h): more than 10 fold
Plasma ([2]; Study 3A, Compound A 8 mg/kg PO, 1 h, 8 mg/kg): 0.47 µM
concentration at 1 h ([2]; Study 3A, Compound A 8 mg/kg PO, 1 h, 8 mg/kg, read-out: Brain): 700 nM
Plasma ([2]; Study 3B, Compound A 4 mg/kg PO 1 h alone, 4 mg/kg): 0.01 ± 0.01 µM
Plasma ([2]; Study 3B, Compound A 4 mg/kg PO 1 h alone, listed as Cmpd A, 4 mg/kg): 0.01 µM
concentration at 1 h ([2]; Study 3B, Compound A 4 mg/kg PO 1 h alone, listed as Cmpd A, 4 mg/kg, read-out: Brain): 30 nM
Plasma ([2]; Study 3C, Compound A 4 mg/kg PO 1 h alone, 4 mg/kg): 0.17 µM
concentration at 1 h ([2]; Study 3C, Compound A 4 mg/kg PO 1 h alone, 4 mg/kg, read-out: Brain): 410 nM
concentration at 1 h ([2]; mouse, brain, oral, Studies 3B+3C combined, analyte Compound A, 4 mg/kg PO + Levetiracetam 300 mg/kg IP, read-out: Brain): 210 nM
concentration at 1 h ([2]; mouse, brain, oral, Study 3B, analyte Compound A, 4 mg/kg PO + Levetiracetam 300 mg/kg IP, read-out: Brain): 40 nM
concentration at 1 h ([2]; mouse, brain, oral, Study 3C, analyte Compound A, 4 mg/kg PO + Levetiracetam 300 mg/kg IP, read-out: Brain): 383 nM
concentration at 1 h ([2]; mouse, brain, po, 4 mg/kg, Studies 3B+3C combined, Compound A 4 mg/kg PO 1 h alone, read-out: Brain): 220 nM
concentration at 1 h ([2]; mouse, brain, po, 4 mg/kg, Study 3B, Compound A 4 mg/kg PO 1 h alone, read-out: Brain): 30 ± 20 nM
concentration at 1 h ([2]; mouse, brain, po, 4 mg/kg, Study 3C, Compound A 4 mg/kg PO 1 h alone, read-out: Brain): 410 ± 230 nM
concentration at 1 h ([2]; mouse, plasma, oral, Studies 3B+3C combined, analyte Compound A, 4 mg/kg PO + Levetiracetam 300 mg/kg IP, read-out: Plasma): 90 nM
concentration at 1 h ([2]; mouse, plasma, oral, Study 3B, analyte Compound A, 4 mg/kg PO + Levetiracetam 300 mg/kg IP, read-out: Plasma): 20 nM
concentration at 1 h ([2]; mouse, plasma, oral, Study 3C, analyte Compound A, 4 mg/kg PO + Levetiracetam 300 mg/kg IP, read-out: Plasma): 170 nM
concentration at 1 h ([2]; mouse, plasma, po, 4 mg/kg, Studies 3B+3C combined, Compound A 4 mg/kg PO 1 h alone, read-out: Plasma): 100 nM
concentration at 1 h ([2]; mouse, plasma, po, 4 mg/kg, Study 3B, Compound A 4 mg/kg PO 1 h alone, read-out: Plasma): 14 ± 9 nM
concentration at 1 h ([2]; mouse, plasma, po, 4 mg/kg, Study 3C, Compound A 4 mg/kg PO 1 h alone, read-out: Plasma): 170 ± 90 nM
